Here are results for 2 compounds from patent US20070254837A1, “Treatment for Necrotizing Enterocolitis” (UNIVERSITY TECHNOLOGIES INTERNATIONAL INC., priority 2003, published 2007).

“Also recorded” adds a separate entry of the source.

Data set [1] has as its system necrotizing enterocolitis. The conditions noted are these: cited from earlier work.
The subject of data set [2] is lactase. Nature of the data set: Neonatal rat model of necrotizing enterocolitis: total lactase activity in distal ileal tissue. Format: in vivo. The conditions noted are these: compared to untreated NEC rats, FIG. 6. How it is done:
(§1) These studies utilized a well-validated neonatal rat model of necrotizing enterocolitis (14). Briefly, neonatal Sprague-Dawley rats (Charles River Laboratories Inc., Wilmington, Mass.) were collected from their mothers immediately after birth, prior to suckling maternal milk. Animals were weighed and placed in infant incubators to control body temperature. Subsequently, rats were hand fed via the orogastric route 0.1 ml of rat milk substitute (RMS) consisting of prepared infant formula (Esbilac formula, Pet-Ag, New Hampshire, Ill.) plus or minus the therapeutic supplement every three hours. EGF (Austral Biologics, San Ramon, Calif.) was produced by genetically engineered yeast and purified by sequential chromatography and reverse phase high pressure liquid chromatography (HPLC) and determined to be >97% pure by N-terminal amino acid sequencing, amino acid composition, HPLC analysis and SDS gel electrophoresis. […]
Body weights and tail lengths were recorded daily, and twice daily urination and defecation was induced by gentle stimulation of the anogenital region and stool collected for future analysis. The small intestine was visually assessed for clinical signs of NEC such as intestinal hemorrhage and discoloration, and ileal distension and stenosis. […]
(§2) Data are expressed as means ±SE. […]

In data set [3] the test system is neonatal rat model of necrotizing enterocolitis. Nature of the data set: Neonatal rat model of necrotizing enterocolitis: histological evaluation of distal ileal tissue. It counts as in vivo. The conditions noted are these: for histological damage scores: distal ileal tissue, compared to NEC animals, FIG. 5; for appearance of ileal tissue sections (photomicrographs): distal ileum, hematoxylin and eosin, FIG. 4. How it is done: as §1, with “electrophoresis. Arginine (L-arginine hydrochloride, crystalline, ICN Biomedicals Inc, Aurora, Ohio) was produced by a proprietary synthetic process. EGF (100 ng/ml) and L-arginine (1.35-2.7 mg/ml) were admininstered based on daily feed intake to achieve a dose of 1.5 mmol/kg/day of L-arginine (in standardized units these doses work out to ˜20 ug EGF/kg/day and ˜316 mg L-arginine/kg/day, for a ratio of about 1:472 500 mole/mole). The EGF and L-arginine were gently vortexed and thoroughly mixed into the Esbilac infant formula. After 48 hrs of feeding, volumes were advanced slowly to 0.3 ml as tolerated.” for “electrophoresis.”
Body weights and tail lengths were recorded daily, and twice daily urination and defecation was induced by gentle stimulation of the anogenital region and stool collected for future analysis. The small intestine was visually assessed for clinical signs of NEC such as intestinal hemorrhage and discoloration, and ileal distension and stenosis. […] Histology was evaluated in a blinded manner and graded as follows: normal (0) showing no damage; mild (+1) showing slight submucosal and/or lamina propria separation (+2); moderate (+2) displaying moderate separation of the submucosa and/or lamina propria, and/or edema in the submucosal and muscular layers; severe (+3) showing severe separation of submucosa and/or lamina propria, and/or severe edema in the submucosal and muscular layers, and regional villus sloughing; necrosis (+4) displaying loss of villi and necrosis (14). The length of the remaining ileum was measured and the tissue homogenized in 2.5 mM ethylenediaminetetraacetic acid (EDTA), snap frozen in liquid nitrogen, and stored at […] for later analysis of lactase activity (21) and ileal protein (5) and DNA (3 1) content.
as §2

Data set [4] shares this test system. Nature of the data set: Neonatal rat model of necrotizing enterocolitis: clinical (macroscopic) assessment of small intestine on autopsy. It counts as in vivo. The conditions noted are these: for discoloration (visual assessment of luminal blood) / stenosis: FIG. 3; for clinical scoring on autopsy (overall clinical appearance, pathology/damage scores): FIG. 2. How it is done: These studies utilized a well-validated neonatal rat model of necrotizing enterocolitis (14). Briefly, neonatal Sprague-Dawley rats (Charles River Laboratories Inc., Wilmington, Mass.) were collected from their mothers immediately after birth, prior to suckling maternal milk. Animals were weighed and placed in infant incubators to control body temperature. Subsequently, rats were hand fed via the orogastric route 0.1 ml of rat milk substitute (RMS) consisting of prepared infant formula (Esbilac formula, Pet-Ag, New Hampshire, Ill.) plus or minus the therapeutic supplement every three hours. EGF (Austral Biologics, San Ramon, Calif.) was produced by genetically engineered yeast and purified by sequential chromatography and reverse phase high pressure liquid chromatography (HPLC) and determined to be >97% pure by N-terminal amino acid sequencing, amino acid composition, HPLC analysis and SDS gel electrophoresis. Arginine (L-arginine hydrochloride, crystalline, ICN Biomedicals Inc, Aurora, Ohio) was produced by a proprietary synthetic process. EGF (100 ng/ml) and L-arginine (1.35-2.7 mg/ml) were admininstered based on daily feed intake to achieve a dose of 1.5 mmol/kg/day of L-arginine (in standardized units these doses work out to ˜20 ug EGF/kg/day and ˜316 mg L-arginine/kg/day, for a ratio of about 1:472 500 mole/mole). The EGF and L-arginine were gently vortexed and thoroughly mixed into the Esbilac infant formula. After 48 hrs of feeding, volumes were advanced slowly to 0.3 ml as tolerated. To induce clinical disease rats were stressed twice daily with asphyxia by breathing 100% nitrogen gas for 60 sec followed by cold stress at 4° C. for 10 min starting one hour after birth.
Six separate experimental groups were studied: unstressed rats artificially fed with EGF-free rat milk substitute (RMS) (Control, n=10); stressed rats that were dam-fed (Control (s), n=7); stressed rats artificially fed EGF-free RMS (NEC, n=10); stressed rats artificially fed RMS supplemented with 100 ng/ml recombinant human EGF (EGF-NEC, n=6); stressed rats artificially fed RMS supplemented with 1.5 mmol L-arginine/kg/day (ARG-NEC, n=6); and stressed rats artificially fed RMS supplemented with 100 ng/ml recombinant human EGF+1.5 mmol L-arginine/kg/day (EGF/ARG-NEC, n=8). Animals that developed abdominal distension, respiratory distress or lethargy during the 96-hour course of the experiment were terminated. After 96 hours all surviving animals were killed by decapitation and the small intestine removed for further analysis.
Body weights and tail lengths were recorded daily, and twice daily urination and defecation was induced by gentle stimulation of the anogenital region and stool collected for future analysis. The small intestine was visually assessed for clinical signs of NEC such as intestinal hemorrhage and discoloration, and ileal distension and stenosis. The small intestine was then divided into two halves and 2-3 cm of tissue from the distal segment (ileum) fixed, embedded in paraffin, and counterstained with hematoxylin and eosin for histological evaluation of NEC (14). Histology was evaluated in a blinded manner and graded as follows: normal (0) showing no damage; mild (+1) showing slight submucosal and/or lamina propria separation (+2); moderate (+2) displaying moderate separation of the submucosa and/or lamina propria, and/or edema in the submucosal and muscular layers; severe (+3) showing severe separation of submucosa and/or lamina propria, and/or severe edema in the submucosal and muscular layers, and regional villus sloughing; necrosis (+4) displaying loss of villi and necrosis (14). The length of the remaining ileum was measured and the tissue homogenized in 2.5 mM ethylenediaminetetraacetic acid (EDTA), snap frozen in liquid nitrogen, and stored at […] for later analysis of lactase activity (21) and ileal protein (5) and DNA (3 1) content.
as §2

In data set [5] the test system is neonatal piglet model of NEC. The conditions noted are these: infusion; cited from earlier work.
The subject of data set [6] is necrotizing enterocolitis. The conditions noted are these: 152 infants, birthweight ≦1250 g, gestational age ≦32 weeks; dietary L-arginine supplementation; reduced from 27%; cited from earlier work.
Where [7] appears, read: stressed neonatal rats, RMS with EGF 100 ng/ml and/or L-arginine 1.5 mmol/kg/day, 96 h, compared to untreated (NEC) group.

For “EGF: 53-amino acid protein, human EGF sequence SEQ ID NO: 1, produced by genetically engineered yeast (Austral Biologics)”, the protective effect result in data set [1] (EGF at 500 ng/ml) is “protective effect”. For the same compound, the clinical benefit result in data set [1] (EGF at physiological concentration of 100 ng/ml) was “no significant clinical benefit”. For the same compound, the total lactase activity entry in data set [2] is reported as “did not alter the deficit in lactase activity”. Besides, in data set [3], the histological damage scores result was “did not differ” and the “appearance of ileal tissue sections (photomicrographs)” value is “Significant damage”. In addition, in data set [4] (compared to controls), the “discoloration (visual assessment of luminal blood)” value is given as “significantly elevated” and the stenosis entry is given as “significant stenosis”. The “clinical scoring on autopsy (overall clinical appearance, pathology/damage scores)” value in data set [4] (same treatment, compared to control animals) is reported as “still significantly increased over control animals”. In addition, the “clinical scoring on autopsy (overall clinical appearance, pathology/damage scores)” value in data set [4] (setting [7]) is on record as “significantly less than that observed in the untreated (NEC) group; also recorded: some protection against physical damage to the intestine”.
For the compound `N=C(N)NCCCC(N)C(=O)O` (stereo not shown) [Arg, 2-amino-5-guanidinovaleric acid], the intestinal injury result in data set [5] was “markedly reduced intestinal injury”. In data set [2], the total lactase activity result is listed as “did not alter the deficit in lactase activity”. Also, the histological damage scores entry in data set [3] was “did not differ”. Further, in data set [3], the “appearance of ileal tissue sections (photomicrographs)” value is given as “Significant damage”. Also, the “discoloration (visual assessment of luminal blood)” value in data set [4] (compared to controls) is “significantly elevated”; in data set [4] (compared to untreated group), “significantly less discoloration than observed in the untreated group”; in data set [4] (compared to untreated group, listed as L-arginine) it was “decreased the appearance of blood in the lumen”. In addition, in data set [4] (compared to controls), the stenosis result was “significant stenosis”. In data set [4] (setting [7]), the “clinical scoring on autopsy (overall clinical appearance, pathology/damage scores)” value was “did not differ”. For the same compound, the “incidence of NEC” value in data set [6] is on record as 7%.
